A short description of the series: Plasma exposure after oral administration of formulations in rats (LC-MS/MS, WinNonlin). The method, then: In this study, the exposure and distribution of darunavir and efavirenz were evaluated following oral administration in male Sprague-Dawley rats. Four cohorts of 10 rats each were used in this study. The first cohort involved darunavir using the disclosed formulations and the second cohort darunavir in a control formulation. The third cohort involved efavirenz using the disclosed formulations and the fourth cohort efavirenz in a control formulation.
Formulations were administered orally (PO) at 10 mg/kg of darunavir or efavirenz. Following dosing, blood, urine and fecal samples were collected up to 8-hour post dose (groups 1, 3, 5, and 7) or 24-hour post dose (groups 2, 4, 6, and 8). Brain tissue was collected at 8 hours or 24 hours, following the 8 hour or 24-hour urine and feces sample collection. Plasma, urine, feces, and brain tissue concentrations of the analytes were determined by LC-MS/MS. Plasma pharmacokinetic parameters were determined using WinNonlin (v8.0) software.
Plasma, urine, feces, and brain tissue samples were extracted and analyzed using the methods described as follows.
Analytical stock solutions (1.00 mg/mL of the free drug) were prepared in DMSO. Sample Homogenization Brain tissue and feces samples were homogenized with a Virsonic 100 ultrasonic homogenizer. Each brain tissue sample was first weighed, and then an appropriate volume of 20:80 methanol:water was added to make a 2 mL/gram sample. Samples were then homogenized on ice, and stored frozen until analysis. Feces samples were homogenized with 20:80 MeOH:water (8 mL/gram of tissue) prior to extraction. Standard Preparation (Plasma, Urine, and Brain) Standards were prepared in rat plasma containing sodium heparin as the anticoagulant, or in blank tissue homogenate. Working solutions were prepared in 50:50 acetonitrile:water. […] Diluted urine samples were quantified against the rat plasma calibration curve. Brain and feces tissue homogenates were quantified against calibration curves prepared in matched blank tissue homogenate.

For `CC(C)CN(C[C@@H](O)[C@H](Cc1ccccc1)NC(=O)O[C@H]1CO[C@H]2OCC[C@H]21)S(=O)(=O)c1ccc(N)cc1` [darunavir], the “plasma concentration of disclosed compositions versus control formulations” value (disclosed compositions compared with compositions without the bioavailability agents) is recorded as “double”. Moreover, the average plasma concentration result (test animals (disclosed test formulation), at 1 hour) is on record as “approximately 306 ng/mL”.
For `O=C1Nc2ccc(Cl)cc2[C@@](C#CC2CC2)(C(F)(F)F)O1` [efavirenz], the “plasma concentration of disclosed compositions versus control formulations” value (rat, in vivo) is given as “higher levels”.

For the origin of these results see patent US11311559B2, “Compositions and methods for enhanced delivery of antiviral agents” (POVIVA CORP., priority 2020, dated 2022).
